Assay results as given in patent publication US6770596B1, “Fused tricyclic compounds, process for their preparation, and herbicidal compositions containing them” (Ishihara Sangyo Kaisha Ltd., priority 2002, dated 2004).

What was measured:
Assay type in all cases: in vivo
[1] = system: field corn (Zea mays L., var. Dekalb 535, CORN); assay: Post-emerge test, crop damage field corn; conditions: post-emerge, 250 g ai/ha, 14 days after application, rating scale 0-100 (0 no damage, 100 complete death)
Summary of the method: (§1)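 Post-emergence spray, 8-1000 g ai/ha in acetone at 187 l/ha with 0.25% v/v non-ionic surfactant, applied to 2-3 leaf plants. Pots of sandy loam mix, greenhouse. Visual 0-100 injury rating at 14 DAT.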

[2] = system: large crabgrass (Digitaria sanguinalis, DIS); assay: Pre-emerge test, large crabgrass; conditions: 250 g ai/ha, 14 days after application, rating scale 0-100 (0 no damage, 100 complete death)
Summary of the method: (§2)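 Using a track sprayer with flat fan nozzle, acetone solutions were applied at 8–1000 g ai/ha to sandy loam pots sown one day before. Plant injury was rated visually 0–100 after 14 days.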

[3] = system: velvetleaf (Abutilon theophrasti, ABT); assay: Post-emerge test, velvetleaf; conditions: 250 g ai/ha, 14 days after application, rating scale 0-100 (0 no damage, 100 complete death)
Summary of the method: as §1

[4] = system: green foxtail (Setaria viridis, SEV); assay: Pre-emerge test, green foxtail; conditions: 250 g ai/ha, 14 days after application, rating scale 0-100 (0 no damage, 100 complete death)
Summary of the method: as §2

[5] = system: velvetleaf (Abutilon theophrasti, ABT); assay: Pre-emerge test, velvetleaf; conditions: 250 g ai/ha, 14 days after application, rating scale 0-100 (0 no damage, 100 complete death)
Summary of the method: as §2

[6] = system: cocklebur (Xanthium strumariunt, XAS); assay: Pre-emerge test, cocklebur; conditions: 250 g ai/ha, 14 days after application, rating scale 0-100 (0 no damage, 100 complete death)
Summary of the method: as §2

[7] = system: green foxtail (Setaria viridis, SEV); assay: Post-emerge test, green foxtail; conditions: 250 g ai/ha, 14 days after application, rating scale 0-100 (0 no damage, 100 complete death)
Summary of the method: as §1

[8] = system: common ragweed (Ambrosia artemisiifolia L., AML); assay: Pre-emerge test, common ragweed; conditions: 250 g ai/ha, 14 days after application, rating scale 0-100 (0 no damage, 100 complete death)
Summary of the method: as §2

[9] = system: common ragweed (Ambrosia artemisiifolia L., AML); assay: Post-emerge test, common ragweed; conditions: 250 g ai/ha, 14 days after application, rating scale 0-100 (0 no damage, 100 complete death)
Summary of the method: as §1

[10] = system: upland rice (Oryza sp., var.Tebonnet, RICE); assay: Pre-emerge test, crop damage upland rice; conditions: pre-emerge, 250 g ai/ha, 14 days after application, rating scale 0-100 (0 no damage, 100 complete death)
Summary of the method: (§3)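 Seeds planted 1 day pre-application in sandy loam soil mix; acetone solutions sprayed at 8 to 1000 g ai/ha (187 l/ha, flat fan nozzle, track sprayer). 14 d later, visual damage scored on a 0–100 scale.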

[11] = system: ivyleaf morningglory (Ipomoea hederacea, IPH); assay: Post-emerge test, ivyleaf morningglory; conditions: 250 g ai/ha, 14 days after application, rating scale 0-100 (0 no damage, 100 complete death)
Summary of the method: as §1

[12] = system: sicklepod (Cassia obtusifolia, CAO); assay: Post-emerge test, sicklepod; conditions: 250 g ai/ha, 14 days after application, rating scale 0-100 (0 no damage, 100 complete death)
Summary of the method: as §1

[13] = system: upland rice (Oryza sp., var.Tebonnet, RICE); assay: Post-emerge test, crop damage upland rice; conditions: post-emerge, 250 g ai/ha, 14 days after application, rating scale 0-100 (0 no damage, 100 complete death)
Summary of the method: as §1

[14] = system: redroot pigweed (Amaranthus retroflexus, AMR); assay: Pre-emerge test, redroot pigweed; conditions: 250 g ai/ha, 14 days after application, rating scale 0-100 (0 no damage, 100 complete death)
Summary of the method: as §2

[15] = system: redroot pigweed (Amaranthus retroflexus, AMR); assay: Post-emerge test, redroot pigweed; conditions: 250 g ai/ha, 14 days after application, rating scale 0-100 (0 no damage, 100 complete death)
Summary of the method: as §1

[16] = system: wheat (Triticum aestivum); assay: Post-emerge test, crop damage wheat; conditions: post-emerge, 250 g ai/ha, 14 days after application, rating scale 0-100 (0 no damage, 100 complete death)
Summary of the method: as §1

[17] = system: large crabgrass (Digitaria sanguinalis, DIS); assay: Post-emerge test, large crabgrass; conditions: 250 g ai/ha, 14 days after application, rating scale 0-100 (0 no damage, 100 complete death)
Summary of the method: as §1

[18] = system: ivyleaf morningglory (Ipomoea hederacea, IPH); assay: Pre-emerge test, ivyleaf morningglory; conditions: 250 g ai/ha, 14 days after application, rating scale 0-100 (0 no damage, 100 complete death)
Summary of the method: as §2

[19] = system: lambsquarters (Chenopodium album, CHA); assay: Post-emerge test, lambsquarters; conditions: 250 g ai/ha, 14 days after application, rating scale 0-100 (0 no damage, 100 complete death)
Summary of the method: as §1

[20] = system: field corn (Zea mays L., var. Dekalb 535, CORN); assay: Pre-emerge test, crop damage field corn; conditions: pre-emerge, 250 g ai/ha, 14 days after application, rating scale 0-100 (0 no damage, 100 complete death)
Summary of the method: as §3

[21] = system: johnsongrass (Sorghum halepense, SOH); assay: Post-emerge test, johnsongrass; conditions: 250 g ai/ha, 14 days after application, rating scale 0-100 (0 no damage, 100 complete death)
Summary of the method: as §1

[22] = system: soybean (Glycine max L., var. Pella 86, SOY); assay: Post-emerge test, crop damage soybean; conditions: post-emerge, 250 g ai/ha, 14 days after application, rating scale 0-100 (0 no damage, 100 complete death)
Summary of the method: as §1

[23] = system: cocklebur (Xanthium strumariunt, XAS); assay: Post-emerge test, cocklebur; conditions: 250 g ai/ha, 14 days after application, rating scale 0-100 (0 no damage, 100 complete death)
Summary of the method: as §1

[24] = system: barnyardgrass (Echinachloa crus-galli, ECC); assay: Pre-emerge test, barnyardgrass; conditions: 250 g ai/ha, 14 days after application, rating scale 0-100 (0 no damage, 100 complete death)
Summary of the method: as §2

[25] = system: sicklepod (Cassia obtusifolia, CAO); assay: Pre-emerge test, sicklepod; conditions: 250 g ai/ha, 14 days after application, rating scale 0-100 (0 no damage, 100 complete death)
Summary of the method: as §2

[26] = system: barnyardgrass (Echinachloa crus-galli, ECC); assay: Post-emerge test, barnyardgrass; conditions: 250 g ai/ha, 14 days after application, rating scale 0-100 (0 no damage, 100 complete death)
Summary of the method: as §1

[27] = system: wheat (Triticum aestivum); assay: Pre-emerge test, crop damage wheat; conditions: pre-emerge, 250 g ai/ha, 14 days after application, rating scale 0-100 (0 no damage, 100 complete death)
Summary of the method: as §3

[28] = system: soybean (Glycine max L., var. Pella 86, SOY); assay: Pre-emerge test, crop damage soybean; conditions: pre-emerge, 250 g ai/ha, 14 days after application, rating scale 0-100 (0 no damage, 100 complete death)
Summary of the method: as §3

[29] = system: lambsquarters (Chenopodium album, CHA); assay: Pre-emerge test, lambsquarters; conditions: 250 g ai/ha, 14 days after application, rating scale 0-100 (0 no damage, 100 complete death)
Summary of the method: as §2

[30] = system: johnsongrass (Sorghum halepense, SOH); assay: Pre-emerge test, johnsongrass; conditions: 250 g ai/ha, 14 days after application, rating scale 0-100 (0 no damage, 100 complete death)
Summary of the method: as §2

O=C1CN2C(=O)COc3cc(F)c(-n4nnn(CCCF)c4=O)c(c32)N1 [1-76]
Post-emerge crop damage CORN (phytotoxicity rating) [1]: 0
Pre-emerge Herbicidal Activity DIS (phytotoxicity rating) [2]: 25
Post-emerge Herbicidal Activity ABT (phytotoxicity rating) [3]: 0
Pre-emerge Herbicidal Activity SEV (phytotoxicity rating) [4]: 0
Pre-emerge Herbicidal Activity ABT (phytotoxicity rating) [5]: 55
Pre-emerge Herbicidal Activity XAS (phytotoxicity rating) [6]: 60
Post-emerge Herbicidal Activity SEV (phytotoxicity rating) [7]: 0
Pre-emerge Herbicidal Activity AML (phytotoxicity rating) [8]: 55
Post-emerge Herbicidal Activity AML (phytotoxicity rating) [9]: 0
Pre-emerge crop damage RICE (phytotoxicity rating) [10]: 10
Post-emerge Herbicidal Activity IPH (phytotoxicity rating) [11]: 0
Post-emerge Herbicidal Activity CAO (phytotoxicity rating) [12]: 0
Post-emerge crop damage RICE (phytotoxicity rating) [13]: 0
Pre-emerge Herbicidal Activity AMR (phytotoxicity rating) [14]: 65
Post-emerge Herbicidal Activity AMR (phytotoxicity rating) [15]: 0
Post-emerge crop damage WHEAT (phytotoxicity rating) [16]: 0
Post-emerge Herbicidal Activity DIS (phytotoxicity rating) [17]: 0
Pre-emerge Herbicidal Activity IPH (phytotoxicity rating) [18]: 25
Post-emerge Herbicidal Activity CHA (phytotoxicity rating) [19]: 0
Pre-emerge crop damage CORN (phytotoxicity rating) [20]: 5
Post-emerge Herbicidal Activity SOH (phytotoxicity rating) [21]: 0
Post-emerge crop damage SOY (phytotoxicity rating) [22]: 0
Post-emerge Herbicidal Activity XAS (phytotoxicity rating) [23]: 0
Pre-emerge Herbicidal Activity ECC (phytotoxicity rating) [24]: 35
Pre-emerge Herbicidal Activity CAO (phytotoxicity rating) [25]: 45
Post-emerge Herbicidal Activity ECC (phytotoxicity rating) [26]: 0
Pre-emerge crop damage WHEAT (phytotoxicity rating) [27]: 0
Pre-emerge crop damage SOY (phytotoxicity rating) [28]: 0
Pre-emerge Herbicidal Activity CHA (phytotoxicity rating) [29]: 98
Pre-emerge Herbicidal Activity SOH (phytotoxicity rating) [30]: 35

CC(C)C1C(=O)Nc2c3c(cc(F)c2-n2c(=O)cc(C(F)(F)F)n(C)c2=O)OCC(=O)N31 (stereo not drawn) [1-77]
Post-emerge crop damage CORN (phytotoxicity rating) [1]: 0
Pre-emerge Herbicidal Activity DIS (phytotoxicity rating) [2]: 100
Post-emerge Herbicidal Activity ABT (phytotoxicity rating) [3]: 50
Pre-emerge Herbicidal Activity SEV (phytotoxicity rating) [4]: 100
Pre-emerge Herbicidal Activity ABT (phytotoxicity rating) [5]: 100
Pre-emerge Herbicidal Activity XAS (phytotoxicity rating) [6]: 98
Post-emerge Herbicidal Activity SEV (phytotoxicity rating) [7]: 0
Pre-emerge Herbicidal Activity AML (phytotoxicity rating) [8]: 100
Post-emerge Herbicidal Activity AML (phytotoxicity rating) [9]: 0
Pre-emerge crop damage RICE (phytotoxicity rating) [10]: 99
Post-emerge Herbicidal Activity IPH (phytotoxicity rating) [11]: 75
Post-emerge Herbicidal Activity CAO (phytotoxicity rating) [12]: 0
Post-emerge crop damage RICE (phytotoxicity rating) [13]: 35
Pre-emerge Herbicidal Activity AMR (phytotoxicity rating) [14]: 100
Post-emerge Herbicidal Activity AMR (phytotoxicity rating) [15]: 25
Post-emerge crop damage WHEAT (phytotoxicity rating) [16]: 0
Post-emerge Herbicidal Activity DIS (phytotoxicity rating) [17]: 0
Pre-emerge Herbicidal Activity IPH (phytotoxicity rating) [18]: 100
Post-emerge Herbicidal Activity CHA (phytotoxicity rating) [19]: 90
Pre-emerge crop damage CORN (phytotoxicity rating) [20]: 100
Post-emerge Herbicidal Activity SOH (phytotoxicity rating) [21]: 0
Post-emerge crop damage SOY (phytotoxicity rating) [22]: 10
Post-emerge Herbicidal Activity XAS (phytotoxicity rating) [23]: 50
Pre-emerge Herbicidal Activity ECC (phytotoxicity rating) [24]: 100
Pre-emerge Herbicidal Activity CAO (phytotoxicity rating) [25]: 90
Post-emerge Herbicidal Activity ECC (phytotoxicity rating) [26]: 0
Pre-emerge crop damage WHEAT (phytotoxicity rating) [27]: 99
Pre-emerge crop damage SOY (phytotoxicity rating) [28]: 100
Pre-emerge Herbicidal Activity CHA (phytotoxicity rating) [29]: 100
Pre-emerge Herbicidal Activity SOH (phytotoxicity rating) [30]: 99
